{
  "source": "patent US11771685B2",
  "about": "“Compounds for the treatment of neurological or mitochondrial diseases” (MUSC FOUNDATION FOR RESEARCH DEVELOPMENT, priority 2018, dated 2023)",
  "experiment": "Rotarod neurotoxicity test in mice",
  "assay_type": "in vivo, mouse",
  "settings": "1 hr, 44 mA study",
  "protocol": "Mice or rats were administered the NT-102 compound i.p., one hour was allowed to pass (since the time to peak effect was determined to be about one hour), and then rodents were then placed on the Rotarod to determine if any motor defects would be observed; after the rotarod test, then rodents were administered an electrical stimulation to determine if the dose of NT-102 would protect against (i.e., prevent) the seizures due to the electrical stimulation. In particular, using (i) electrical model to test for seizures in mice and, separately, (ii) in rat 6 Hz 40V model. More specifically, NT-102 was injected (i.p.) in 5% DMSO/95% Miglyol 840 as vehicle. Mice were challenged with 6 Hz 44 mA current to see if seizures would result. […] The Time of Peak Effect (TPE) was observed 1 hour. Additional data is shown below in Table 5. The mice were administered the NT-102 at various doses and placed on the rotarod (i.e., “Rotarod (Tox)”) to test if the mice would fall off as a model of due to the effects of NT-102; for the “Rotarod(Tox)” results, the “NIT” indicates the number of mice that fell off the rotarod (e.g., for Rotarod(Tox) results, if N/T is 0/8, then zero out of eight mice fell off). For the electrical stimulation data (i.e., “6 Hz 44 mA”), an electrical stimulation of 6 Hz 44 mA was administered. […] The 44 mA electrical dosage was used since it is considered to be a model to test for medication-resistant epilepsy.",
  "data": [
    {"compound": "CC(C)CCNC1=CC(=O)c2ccccc2C1=O", "note": "[Compound 17, 2-(Isopentylamino)naphthalene-1,4-dione]", "values": [
      {"measurement": "Rotarod (Tox) N/T, mice that fell off", "setting": "100 mg/kg i.p.", "value": "0/8"},
      {"measurement": "Rotarod (Tox) N/T, mice that fell off", "setting": "200 mg/kg i.p.", "value": "2/8"},
      {"measurement": "Rotarod (Tox) N/T, mice that fell off", "setting": "300 mg/kg i.p.", "value": "0/8"},
      {"measurement": "Rotarod (Tox) N/T, mice that fell off", "setting": "400 mg/kg i.p.", "value": "1/8"}
    ]}
  ]
}
